From PubChem BioAssay (NCI) come the findings set out here.

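Cultured in 96-well plates, cells were exposed to test compound for 48 hours across five concentrations. TGI: total growth inhibition.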

Test systems include COLO 205 colon; HCC-2998 colon; HCT-15 colon; K-562 leukemia; MDA-MB-435; PC-3 prostate; SK-OV-3 ovarian; SNB-75 CNS; T-47D breast; U251 CNS.
Common to all, as to test: NCI tumour cell line growth inhibition, 48 h

With `[N-]=[N+]=Nc1nc2ccccc2c(N=[N+]=[N-])c1Cl`, the TGI with COLO 205 colon, with HCC-2998 colon, with HCT-15 colon, in the test on K-562 leukemia, with MDA-MB-435 and in the test on PC-3 prostate was more than 100 µM each time. The TGI in the test on SK-OV-3 ovarian, in the test with SNB-75 CNS, with T-47D breast and with U251 CNS was more than 100 µM in each case.
On to `Cc1cc2c(c(C(=O)NCC(=O)O)c1)Oc1c(cc(C)cc1C(=O)NCC(=O)O)S2`, for which the TGI in the test with COLO 205 colon, with HCC-2998 colon, in the test with HCT-15 colon, in the test with K-562 leukemia, in the test on MDA-MB-435 and in the test with PC-3 prostate was more than 100 µM in each case. Also, the TGI in the test on SK-OV-3 ovarian, with SNB-75 CNS, in the test on T-47D breast and with U251 CNS was more than 100 µM in each case.
Turning to `O=C1C=CC(=O)c2c1ccc1c3ccccc3n(Cc3ccccc3)c21`, the TGI was 38.9 µM with COLO 205 colon; more than 79.5 µM with HCC-2998 colon; 46.2 µM with HCT-15 colon; 10.6 µM in the test on K-562 leukemia; more than 56.8 µM with MDA-MB-435; 53.3 µM in the test with PC-3 prostate. The TGI was more than 100 µM in the test on SK-OV-3 ovarian, more than 100 µM with SNB-75 CNS, 64.6 µM in the test on T-47D breast and more than 100 µM in the test with U251 CNS.
Turning to `COc1ccc(-n2c(N)c(C#N)c(C#N)c2-c2ccco2)cc1`, the TGI in the test on COLO 205 colon, with HCC-2998 colon, in the test with HCT-15 colon, with K-562 leukemia, in the test on MDA-MB-435 and in the test on PC-3 prostate was more than 100 µM each time. Further, the TGI in the test on SK-OV-3 ovarian, with SNB-75 CNS, with T-47D breast and in the test on U251 CNS was more than 100 µM throughout.
